The values below are quoted from earlier work in US20120101089A1, “Anti-Emetic Substance” (priority 2010, published 2012).

Where two headings read alike, the source gives them in different places.

The conditions of series [1]: for optimal dose for PONV treatment: children older than 2 years, intravenously.
The conditions of series [2]: 15 mg and 0.15 mg/kg i.v. immediately after umbilical cord clamped; lidocaine, morphine epidural.
The conditions of series [3]: for Adverse Effect: common adverse effects associated with single agents, listed per class.
For series [4] the following is noted: for optimal effective dose for PONV: adults; for PONV prevention versus metoclopramide 10 mg or placebo: granisetron 3 mg, tropisetron 5 mg before start of anesthesia (Naguib).
Experiment in series [5]: not given
This is another data set of the same source.

For the compound `CCN(CC)CCNC(=O)c1cc(Cl)c(N)cc1OC` [metoclopramide, Metoclopramide], the “effect on emetic effects of opioids” value (additional 10 to 20 mg i.m. at the end of the operation) was “reduced the emetic effects of pethidine, but had less effect when morphine was given”. Also, where the note is “preoperative 10 and 20 mg intramuscularly”, the “effect on pre-anaesthetic emetic effects of pethidine” value is “abolished the pre-anaesthetic emetic effects of pethidine”. In series [1] (10 mg intravenously), the “treatment of PONV versus comparators” value was “as effective as intravenous droperidol 1.25 mg and more effective than intravenous propofol 10 mg”. The “incidence of nausea and vomiting” value in series [2] is “effectively reduce the incidence of nausea and vomiting”. In addition, in series [3], the “Adverse Effect” value is on record as “Sedation, EPS, restlessness,”.

On to `Cc1nccn1CC1CCc2c(c3ccccc3n2C)C1=O` (stereo not shown) [ondansetron, Ondansetron], for which the figures for the “optimal effective dose for PONV” value in series [4] (intravenously at the start of anesthesia) and in series [4] (orally 1 to 2 hours before anesthesia) were 4 mg and 8 mg, respectively. In addition, the “optimal dose for PONV prevention” value in series [4] (children older than 2 years, orally) is 0.1 mg/kg. In addition, the “prevention of vomiting versus comparators” value in series [4] (i.v. 0.1 mg/kg, children undergoing adenotonsillectomy) was “more effective in preventing vomiting than dimenhydrimate 0.5 mg/kg or placebo”. For the same compound, the “efficacy by timing of administration” value in series [4] (i.v. 4 mg, end of surgery versus before induction of anesthesia) was “significantly better when administered at the end of surgery”. Besides, the “patients with emesis versus i.v. metoclopramide 10 mg or droperidol 0.625 mg” value in series [4] (i.v. 8 mg prior to anesthesia (Alon and Himmelseher)) is on record as “fewer”. Moreover, in series [4] (i.v. ondansetron 4 mg, dexamethasone 8 mg, major gynaecological surgery), the “difference between ondansetron and dexamethasone administered alone” value was “No difference”. Moreover, the “PONV prevention versus metoclopramide 10 mg or placebo” value in series [4] (i.v. ondansetron 4 mg) was “significantly greater anti-emetic effectiveness than metoclopramide or placebo”. The “control of vomiting and nausea during subsequent days of chemotherapy” value in series [5] (single agent (Barbounis)) is reported as “progressive decline”. Also, the “cases in which effective” value in series [5] (single agent, day 1 of chemotherapy administration (Barbounis)) is reported as “about 76%”. Further, the “optimal dose for PONV treatment” value was 0.1 mg/kg in series [1] (<40 kg) and 4 mg in series [1] (>40 kg). In addition, the “treatment of PONV versus comparators” value in series [1] (i.v. 4 mg, following gynecological laparoscopy (Polati)) is reported as “better efficacy than intravenous metoclopramide 10 mg or placebo”. The “control of PONV by repeat dose” value in series [1] (repeat i.v. 4 mg in PACU after failed prophylaxis with i.v. 4 mg (Kovac)) is “does not appear to offer additional control of PONV”. Also, the “incidence of adverse events after additional dose” value in series [3] (additional 4 mg postoperatively) was “did not result in an increased incidence of adverse events”. The “Adverse Effect” value in series [3] is reported as “Headache, dizziness”. In addition, the “sedation, droperidol versus ondansetron groups” value in series [3] (i.v. ondansetron 4 mg, droperidol 20 μg/kg, outpatient gynaecological laparoscopy) is “no difference”.

With `CN1[C@@H]2CC[C@H]1C[C@@H](OC(=O)c1c[nH]c3ccccc13)C2` [tropisetron, Tropisetron], the “prevention of PONV” value in series [4] (5 mg i.v. before start of anesthesia, breast and gynaecological surgery) was “effective for prevention of PONV”. The “PONV prevention versus metoclopramide 10 mg or placebo” value in series [4] (i.v. ondansetron 4 mg) is reported as “significantly greater anti-emetic effectiveness than metoclopramide or placebo”. In addition, the “prevention of PONV symptoms” value in series [4] (i.v. tropisetron 5 mg, droperidol 1.25 mg at the end of gynaecological surgery (Purhonen)) was “effectively prevented vomiting, but not nausea and retching”. Further, the patients with response result in series [5] (single agent, first study) was “about 80%”. Besides, the “optimal effective dose for treatment of PONV” value in series [1] (intravenous, abdominal and non-abdominal surgeries (Alon)) is 2 mg. The “Adverse Effect” value in series [3] was “Headache, dizziness”.
